# Results: the supplement of paper PMC4932681
# Experiments:
# BT-474 [1] = assay: drug sensitivity score (DSS) (DSS (dimensionless)); higher = more sensitive; extreme values may be limits of the assay; details: 72 h
# Method: (§1)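 FIMM FO2B library drugs were tested at 5 concentrations (10,000-fold range) for 72 h, with CellTiter-Glo viability normalised to DMSO and benzethonium chloride controls. The Drug Sensitivity Score (DSS) is computed from the fitted logistic dose-response curve (area-based; 0 = inactive). Resistant lines and the 'in 1µM tamoxifen' arms were tested in 1 µM 4-OH-tamoxifen.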
# ZR-75-1 Tam2 [2] = assay: as above; details: 4-OH-tamoxifen in medium 1 µM; 72 h
# Method: as §1
# T-47D Tam1 = assay: as above; details: 4-OH-tamoxifen in medium 1 µM; 72 h
# Method: as §1
# T-47D [3] = assay: as above; details: 72 h
# Method: as §1
# ZR-75-1 Tam1 [4] = assay: as above; details: 4-OH-tamoxifen in medium 1 µM; 72 h
# Method: as §1
# MCF-7 Tam1 = assay: as above; details: 4-OH-tamoxifen in medium 1 µM; 72 h
# Method: as §1
# BT-474 Tam2 [5] = assay: as above; details: 4-OH-tamoxifen in medium 1 µM; 72 h
# Method: as §1
# T-47D Tam2 = assay: as above; details: 4-OH-tamoxifen in medium 1 µM; 72 h
# Method: as §1
# MCF-7 [6] = assay: as above; details: 72 h
# Method: as §1
# ZR-75-1 [7] = assay: as above; details: 72 h
# Method: as §1
# BT-474 Tam1 [8] = assay: as above; details: 4-OH-tamoxifen in medium 1 µM; 72 h
# Method: as §1
# BT-474 [9] = assay: relative IC50 (midpoint of fitted logistic curve, plateau may be below 50% inhibition; CellTiter-Glo viability); higher = less potent; details: 72 h
# Method: (§2)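 FIMM FO2B library drugs were plated at 5 concentrations spanning a 10,000-fold range in 384-well plates. Cells were incubated for 72 h at 37 °C and viability was read by CellTiter-Glo, normalised to DMSO (0% inhibition) and 100 µM benzethonium chloride (100% inhibition). IC50 values come from logistic dose-response fits (Breeze pipeline). Tamoxifen-resistant lines and the 'in 1µM tamoxifen' parental arms were tested in medium with 1 µM 4-OH-tamoxifen.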
# T-47D [10] = assay: as above; details: 72 h
# Method: as §2
# BT-474 Tam2 [11] = assay: as above; details: 4-OH-tamoxifen in medium 1 µM; 72 h
# Method: as §2
# MCF-7 [12] = assay: as above; details: 72 h
# Method: as §2
# ZR-75-1 [13] = assay: as above; details: 72 h
# Method: as §2
# ZR-75-1 Tam2 [14] = assay: as above; details: 4-OH-tamoxifen in medium 1 µM; 72 h
# Method: as §2
# BT-474 Tam1 [15] = assay: as above; details: 4-OH-tamoxifen in medium 1 µM; 72 h
# Method: as §2
# ZR-75-1 Tam1 [16] = assay: as above; details: 4-OH-tamoxifen in medium 1 µM; 72 h
# Method: as §2
SMILES,relative IC50 (BT-474 [9]; 4-OH-tamoxifen in medium 1 µM) [µM],relative IC50 (T-47D [10]; 4-OH-tamoxifen in medium 1 µM) [µM],relative IC50 (BT-474 Tam2 [11]) [µM],relative IC50 (MCF-7 [12]; 4-OH-tamoxifen in medium 0 µM) [µM],relative IC50 (BT-474 [9]; 4-OH-tamoxifen in medium 0 µM) [µM],relative IC50 (BT-474 Tam1 [15]) [µM],relative IC50 (T-47D [10]; 4-OH-tamoxifen in medium 0 µM) [µM],relative IC50 (MCF-7 [12]; 4-OH-tamoxifen in medium 1 µM) [µM],drug sensitivity score (BT-474 [1]; 4-OH-tamoxifen in medium 0 µM),drug sensitivity score (BT-474 [1]; 4-OH-tamoxifen in medium 1 µM),drug sensitivity score (ZR-75-1 Tam2 [2]),drug sensitivity score (T-47D Tam1),drug sensitivity score (T-47D [3]; 4-OH-tamoxifen in medium 0 µM),drug sensitivity score (T-47D [3]; 4-OH-tamoxifen in medium 1 µM),drug sensitivity score (ZR-75-1 Tam1 [4]),drug sensitivity score (MCF-7 Tam1),drug sensitivity score (BT-474 Tam2 [5]),drug sensitivity score (T-47D Tam2),drug sensitivity score (MCF-7 [6]; 4-OH-tamoxifen in medium 0 µM),drug sensitivity score (MCF-7 [6]; 4-OH-tamoxifen in medium 1 µM),drug sensitivity score (ZR-75-1 [7]; 4-OH-tamoxifen in medium 0 µM),drug sensitivity score (ZR-75-1 [7]; 4-OH-tamoxifen in medium 1 µM),drug sensitivity score (BT-474 Tam1 [8]),relative IC50 (ZR-75-1 [13]; 4-OH-tamoxifen in medium 0 µM) [µM],relative IC50 (ZR-75-1 Tam2 [14]) [µM],relative IC50 (ZR-75-1 Tam1 [16]) [µM],relative IC50 (ZR-75-1 [13]; 4-OH-tamoxifen in medium 1 µM) [µM]
CC(=O)c1c(C)c2cnc(Nc3ccc(N4CCNCC4)cn3)nc2n(C2CCCC2)c1=O,> 10,> 10,> 10,1.16,–,–,–,–,0,0,1.63,2.49,2.46,0,1.11,0.967,0,1.34,3.32,3.28,0,0.745,0,> 10,–,–,–
CC(C)c1c(C(=O)Nc2ccccc2)c(-c2ccccc2)c(-c2ccc(F)cc2)n1CC[C@@H](O)C[C@@H](O)CC(=O)O [Atorvastatin],> 10,3.21,–,–,–,–,1.82,–,0.471,0,3.56,3.38,2.75,1.73,3.76,0,2.17,0.823,0.619,1.69,4.64,2.87,0.517,1.17,1.43,1.72,1.65
CNC(=O)c1ccccc1Sc1ccc2c(/C=C/c3ccccn3)n[nH]c2c1 [Axitinib],1.65,–,–,3.32,–,3.25,2.77,1.48,0.518,3.56,1.49,1.41,2.18,0.979,0,1.84,1.5,0.968,1.43,2.88,0,0.656,2.01,> 10,–,> 10,–
COc1cc2c(Oc3ccc(NC(=O)C4(C(=O)Nc5ccc(F)cc5)CC4)cc3F)ccnc2cc1OCCCN1CCOCC1 [Foretinib (Foretinib)],0.404,–,–,–,> 1,0.314,–,–,0,1.73,0.585,0.595,0.41,0.227,0,1.72,0.0003,1.36,0.867,0.0297,0,0,1.42,> 1,–,–,–
S=c1[nH]cnc2nc[nH]c12 [Mercaptopurine],–,> 10,> 10,–,> 10,> 10,> 10,–,0,1.43,1.17,0.0158,0,0,3.2,0.313,0,0,0.509,2.88,3.86,0,0,1.17,–,1.27,–

# The next lines start with results.
relative IC50 (BT-474 [9]; 4-OH-tamoxifen in medium 1 µM) [µM],relative IC50 (T-47D [10]; 4-OH-tamoxifen in medium 1 µM) [µM],relative IC50 (BT-474 Tam2 [11]) [µM],relative IC50 (MCF-7 [12]; 4-OH-tamoxifen in medium 0 µM) [µM],relative IC50 (BT-474 [9]; 4-OH-tamoxifen in medium 0 µM) [µM],relative IC50 (BT-474 Tam1 [15]) [µM],relative IC50 (T-47D [10]; 4-OH-tamoxifen in medium 0 µM) [µM],relative IC50 (MCF-7 [12]; 4-OH-tamoxifen in medium 1 µM) [µM],SMILES,drug sensitivity score (BT-474 [1]; 4-OH-tamoxifen in medium 0 µM),drug sensitivity score (BT-474 [1]; 4-OH-tamoxifen in medium 1 µM),drug sensitivity score (ZR-75-1 Tam2 [2]),drug sensitivity score (T-47D Tam1),drug sensitivity score (T-47D [3]; 4-OH-tamoxifen in medium 0 µM),drug sensitivity score (T-47D [3]; 4-OH-tamoxifen in medium 1 µM),drug sensitivity score (ZR-75-1 Tam1 [4]),drug sensitivity score (MCF-7 Tam1),drug sensitivity score (BT-474 Tam2 [5]),drug sensitivity score (T-47D Tam2),drug sensitivity score (MCF-7 [6]; 4-OH-tamoxifen in medium 0 µM),drug sensitivity score (MCF-7 [6]; 4-OH-tamoxifen in medium 1 µM),drug sensitivity score (ZR-75-1 [7]; 4-OH-tamoxifen in medium 0 µM),drug sensitivity score (ZR-75-1 [7]; 4-OH-tamoxifen in medium 1 µM),drug sensitivity score (BT-474 Tam1 [8]),relative IC50 (ZR-75-1 [13]; 4-OH-tamoxifen in medium 0 µM) [µM],relative IC50 (ZR-75-1 Tam2 [14]) [µM],relative IC50 (ZR-75-1 Tam1 [16]) [µM],relative IC50 (ZR-75-1 [13]; 4-OH-tamoxifen in medium 1 µM) [µM]
3.98,> 10,3.9,3.72,> 10,3.22,–,–,c1ccc2c(CCNc3ccc(Nc4ccncc4)cc3)c[nH]c2c1,0,3.42,1.69,0.685,0.192,0,0.823,0.0212,1.44,0.542,2.88,0.416,0.0538,0.973,5.04,–,2.76,–,–
3.13,> 10,1.41,–,> 10,2.79,> 10,1.23,C=CC[C@@H]1/C=C(\C)C[C@H](C)C[C@H](OC)[C@H]2O[C@@](O)(C(=O)C(=O)N3CCCC[C@H]3C(=O)O[C@H](/C(C)=C/[C@@H]3CC[C@@H](O)[C@H](OC)C3)[C@H](C)[C@@H](O)CC1=O)[C@H](C)C[C@@H]2OC [Tacrolimus (FK 506)],0,1.97,0.01,2.72,0,0,0.336,1.18,2.96,0.788,0.766,3.51,0,0.622,2.73,> 10,–,–,–
